Experimental data taken from the supplement of paper PMC10307832.

Columns and labels:
Experiment in all cases: relative viability (nuclei count vs DMSO), 5 days (fraction); higher = more cells survive
201T = test system: 201T
How it was run: (§1)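 Five library-drug doses in √10 steps were combined with a fixed anchor-drug dose, or a single drug was given alone, by pin tool to lung cancer cell lines in 1536-well plates the day after seeding. Nuclei were stained and counted after 5 days. Relative viability is the nuclei count in treated wells over that in vehicle wells, taken as the median of duplicate plates.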

COR-L23 = test system: COR-L23
How it was run: as §1

H3255 = test system: H3255
How it was run: as §1

HARA = test system: HARA
How it was run: as §1

HCC-366 = test system: HCC-366
How it was run: as §1

HCC-78 = test system: HCC-78
How it was run: as §1

LU99A = test system: LU99A
How it was run: as §1

NCI-H1650 = test system: NCI-H1650
How it was run: as §1

NCI-H1651 = test system: NCI-H1651
How it was run: as §1

NCI-H1755 = test system: NCI-H1755
How it was run: as §1

NCI-H1793 = test system: NCI-H1793
How it was run: as §1

NCI-H2085 = test system: NCI-H2085
How it was run: as §1

NCI-H2087 = test system: NCI-H2087
How it was run: as §1

NCI-H23 = test system: NCI-H23
How it was run: as §1

NCI-H3122 = test system: NCI-H3122
How it was run: as §1

NCI-H322M = test system: NCI-H322M
How it was run: as §1

NCI-H358 = test system: NCI-H358
How it was run: as §1

NCI-H460 = test system: NCI-H460
How it was run: as §1

NCI-H522 = test system: NCI-H522
How it was run: as §1

NCI-H596 = test system: NCI-H596
How it was run: as §1

NCI-H650 = test system: NCI-H650
How it was run: as §1

PC-3 [JPC-3] = test system: PC-3 [JPC-3]
How it was run: as §1

SK-LU-1 = test system: SK-LU-1
How it was run: as §1

CN1CCN(CCOc2cc(OC3CCOCC3)c3c(Nc4c(Cl)ccc5c4OCO5)ncnc3c2)CC1 [Saracatinib] + Nc1ncn([C@H]2C[C@H](O)[C@@H](CO)O2)c(=O)n1 [Decitabine] (partner 2 µM)
relative viability (201T; first compound 0.02 µM): 0.832 | relative viability (201T; first compound 0.2 µM): 0.644 | relative viability (201T; first compound 0.6325 µM): 0.75 | relative viability (201T; first compound 2 µM): 0.71 | relative viability (COR-L23; first compound 0.02 µM): 0.44 | relative viability (COR-L23; first compound 0.2 µM): 0.385 | relative viability (COR-L23; first compound 0.6325 µM): 0.419 | relative viability (COR-L23; first compound 2 µM): 0.335 | relative viability (H3255; first compound 0.02 µM): 0.605 | relative viability (H3255; first compound 0.2 µM): 0.587 | relative viability (H3255; first compound 0.6325 µM): 0.579 | relative viability (H3255; first compound 2 µM): 0.209 | relative viability (HARA; first compound 0.02 µM): 0.605 | relative viability (HARA; first compound 0.2 µM): 0.367 | relative viability (HARA; first compound 0.6325 µM): 0.465 | relative viability (HARA; first compound 2 µM): 0.381 | relative viability (HCC-366; first compound 0.02 µM): 0.321 | relative viability (HCC-366; first compound 0.2 µM): 0.148 | relative viability (HCC-366; first compound 0.6325 µM): 0.293 | relative viability (HCC-366; first compound 2 µM): 0.194 | relative viability (HCC-78; first compound 0.02 µM): 0.524 | relative viability (HCC-78; first compound 0.6325 µM): 0.736 | relative viability (HCC-78; first compound 2 µM): 0.686 | relative viability (LU99A; first compound 0.02 µM): 0.857 | relative viability (LU99A; first compound 0.2 µM): 0.807 | relative viability (LU99A; first compound 0.6325 µM): 0.678 | relative viability (LU99A; first compound 2 µM): 0.658 | relative viability (NCI-H1650; first compound 0.02 µM): 0.428 | relative viability (NCI-H1650; first compound 0.2 µM): 0.519 | relative viability (NCI-H1650; first compound 0.6325 µM): 0.431 | relative viability (NCI-H1650; first compound 2 µM): 0.365 | relative viability (NCI-H1651; first compound 0.02 µM): 0.734 | relative viability (NCI-H1651; first compound 0.2 µM): 0.375 | relative viability (NCI-H1651; first compound 0.6325 µM): 0.667 | relative viability (NCI-H1651; first compound 2 µM): 0.626 | relative viability (NCI-H1755; first compound 0.02 µM): 0.711 | relative viability (NCI-H1755; first compound 0.2 µM): 0.604 | relative viability (NCI-H1755; first compound 0.6325 µM): 0.72 | relative viability (NCI-H1755; first compound 2 µM): 0.691 | relative viability (NCI-H1793; first compound 0.02 µM): 0.543 | relative viability (NCI-H1793; first compound 0.2 µM): 0.338 | relative viability (NCI-H1793; first compound 0.6325 µM): 0.504 | relative viability (NCI-H1793; first compound 2 µM): 0.403 | relative viability (NCI-H2085; first compound 0.02 µM): 0.531 | relative viability (NCI-H2085; first compound 0.2 µM): 0.478 | relative viability (NCI-H2085; first compound 0.6325 µM): 0.602 | relative viability (NCI-H2085; first compound 2 µM): 0.469 | relative viability (NCI-H2087; first compound 0.02 µM): 0.322 | relative viability (NCI-H2087; first compound 0.2 µM): 0.226 | relative viability (NCI-H2087; first compound 0.6325 µM): 0.27 | relative viability (NCI-H2087; first compound 2 µM): 0.293 | relative viability (NCI-H23; first compound 0.02 µM): 0.208 | relative viability (NCI-H23; first compound 0.6325 µM): 0.29 | relative viability (NCI-H23; first compound 2 µM): 0.212 | relative viability (NCI-H3122; first compound 0.02 µM): 0.365 | relative viability (NCI-H3122; first compound 0.2 µM): 0.375 | relative viability (NCI-H3122; first compound 0.6325 µM): 0.314 | relative viability (NCI-H3122; first compound 2 µM): 0.294 | relative viability (NCI-H322M; first compound 0.02 µM): 0.79 | relative viability (NCI-H322M; first compound 0.2 µM): 0.473 | relative viability (NCI-H322M; first compound 0.6325 µM): 0.659 | relative viability (NCI-H322M; first compound 2 µM): 0.409 | relative viability (NCI-H358; first compound 0.02 µM): 0.224 | relative viability (NCI-H358; first compound 0.2 µM): 0.198 | relative viability (NCI-H358; first compound 0.6325 µM): 0.179 | relative viability (NCI-H358; first compound 2 µM): 0.146 | relative viability (NCI-H460; first compound 0.02 µM): 0.457 | relative viability (NCI-H460; first compound 0.2 µM): 0.242 | relative viability (NCI-H460; first compound 0.6325 µM): 0.423 | relative viability (NCI-H460; first compound 2 µM): 0.32 | relative viability (NCI-H522; first compound 0.02 µM): 0.737 | relative viability (NCI-H522; first compound 0.2 µM): 0.665 | relative viability (NCI-H522; first compound 0.6325 µM): 0.705 | relative viability (NCI-H522; first compound 2 µM): 0.627 | relative viability (NCI-H596; first compound 0.02 µM): 0.912 | relative viability (NCI-H596; first compound 0.2 µM): 0.793 | relative viability (NCI-H596; first compound 0.6325 µM): 0.951 | relative viability (NCI-H596; first compound 2 µM): 0.821 | relative viability (NCI-H650; first compound 0.02 µM): 0.319 | relative viability (NCI-H650; first compound 0.2 µM): 0.3 | relative viability (NCI-H650; first compound 0.6325 µM): 0.295 | relative viability (NCI-H650; first compound 2 µM): 0.288 | relative viability (PC-3 [JPC-3]; first compound 0.02 µM): 0.824 | relative viability (PC-3 [JPC-3]; first compound 0.2 µM): 0.711 | relative viability (PC-3 [JPC-3]; first compound 0.6325 µM): 0.695 | relative viability (PC-3 [JPC-3]; first compound 2 µM): 0.555 | relative viability (SK-LU-1; first compound 0.02 µM): 0.546 | relative viability (SK-LU-1; first compound 0.2 µM): 0.526 | relative viability (SK-LU-1; first compound 0.6325 µM): 0.594 | relative viability (SK-LU-1; first compound 2 µM): 0.405
